According to US20160038468A1 (priority 2013, published 2016):
≈ marks a conversion by molar mass, not a printed value. Like-named read-outs stand apart in the source and are kept apart here.

How the values were obtained:
Assay type in all cases: cell-based
[1] = tested on: Gardnerella vaginalis; experiment: Agar dilution MIC (CLSI), Gardnerella vaginalis vaginal isolates; details: for Number of strains with indicated MIC: 100 samples
[2] = tested on: Mobiluncus all species; experiment: Agar dilution MIC (CLSI), Mobiluncus all species; details: # tested 40
[3] = tested on: M. curtisii; experiment: Agar dilution MIC (CLSI), M. curtisii vaginal isolates; details: for Number of strains with indicated MIC: 14 samples; for MIC: read-out: Minimal Inhibitory Concentration (MIC)
[4] = tested on: Prevotella amnii; experiment: Agar dilution MIC (CLSI), Prevotella amnii vaginal isolates; details: for Number of strains with indicated MIC: 33 samples; for MIC: read-out: Minimal Inhibitory Concentration (MIC)
[5] = tested on: Finegoldia magna; experiment: Agar dilution MIC (CLSI), Finegoldia magna vaginal isolates; details: for MIC: read-out: Minimal Inhibitory Concentration (MIC); for Number of strains with indicated MIC: 20 samples
[6] = tested on: Peptoniphilus harei; experiment: Agar dilution MIC (CLSI), Peptoniphilus harei vaginal isolates
[7] = Gardnerella vaginalis, # tested 107

SMILES: CCC[C@@H]1C[C@@H](C(=O)N[C@@H]([C@H]2O[C@H](SC)[C@H](O)[C@@H](O)[C@H]2O)[C@H](C)Cl)N(C)C1 [Clindamycin]
- MIC Range ([1]; # tested 107): 0.015 to 0.5 µg/mL
- MIC50 [1, 7]: 0.125 µg/mL (≈ 0.294 µM)
- MIC90 [1, 7]: 0.25 µg/mL (≈ 0.588 µM)
- Number of strains with indicated MIC ([1]; MIC 0.015 μg/ml): 1
- Number of strains with indicated MIC ([1]; MIC 0.03 μg/ml): 11
- Number of strains with indicated MIC ([1]; MIC 0.06 μg/ml): 25
- Number of strains with indicated MIC ([1]; MIC […] μg/ml): 1
- MIC50 [2]: 0.125 µg/mL (≈ 0.294 µM)
- MIC90 [2]: 0.25 µg/mL (≈ 0.588 µM)
- Susceptible ([2]; number (%) of isolates): 38 (95) μg/ml
- Resistant ([2]; number (%) of isolates, resistance: rifaximin >32, metronidazole >32, clindamycin >8 μg/ml): 2 (5) μg/ml
- Number of strains with indicated MIC ([3]; MIC 0.06 μg/ml): 3
- Number of strains with indicated MIC ([3]; MIC 32 μg/ml): 1
- Number of strains with indicated MIC ([3]; MIC >[…]): 1
- MIC ([3]; individual isolates recovered from the vagina 2009-2012, one line per isolate (id in c0/c1 of the row)): 64 µg/mL (≈ 151 µM)
- MIC [3]: > 128 µg/mL
- MIC Range ([4]; # tested 33): 0.03 to 128 µg/mL
- Number of strains with indicated MIC ([4]; MIC 0.03 μg/ml): 32
- Number of strains with indicated MIC ([4]; MIC […]): 1
- MIC ([4]; Prevotella amnii, isolate 601203 4): 0.03 µg/mL (≈ 0.0706 µM)
- MIC ([4]; Prevotella amnii, isolate 601256 11): 0.03 µg/mL (≈ 0.0706 µM)
- MIC ([4]; Prevotella amnii, isolate 601258 25): 0.03 µg/mL (≈ 0.0706 µM)
- MIC ([4]; Prevotella amnii, isolate 601261 E): 0.03 µg/mL (≈ 0.0706 µM)
- MIC ([4]; Prevotella amnii, isolate 601266 20): 0.03 µg/mL (≈ 0.0706 µM)
- MIC ([4]; Prevotella amnii, isolate 601278 10): 0.03 µg/mL (≈ 0.0706 µM)
- MIC ([4]; Prevotella amnii, isolate 601287 HH): 0.03 µg/mL (≈ 0.0706 µM)
- MIC ([4]; Prevotella amnii, isolate 601291 41): 0.03 µg/mL (≈ 0.0706 µM)
- MIC ([4]; Prevotella amnii, isolate 601293 29): 0.03 µg/mL (≈ 0.0706 µM)
- MIC ([4]; Prevotella amnii, isolate 601305 A): 0.03 µg/mL (≈ 0.0706 µM)
- MIC ([4]; Prevotella amnii, isolate 601311 K): 0.03 µg/mL (≈ 0.0706 µM)
- MIC ([4]; Prevotella amnii, isolate 601314 19): 0.03 µg/mL (≈ 0.0706 µM)
- MIC ([4]; Prevotella amnii, isolate 601318 G): 0.03 µg/mL (≈ 0.0706 µM)
- MIC ([4]; Prevotella amnii, isolate 601336 33): 0.03 µg/mL (≈ 0.0706 µM)
- MIC ([4]; Prevotella amnii, isolate 601340 37): 128 µg/mL (≈ 301 µM)
- MIC ([4]; Prevotella amnii, isolate 601341 H): 0.03 µg/mL (≈ 0.0706 µM)
- MIC ([4]; Prevotella amnii, isolate 601350 A): 0.03 µg/mL (≈ 0.0706 µM)
- MIC ([4]; Prevotella amnii, isolate 601365 6): 0.03 µg/mL (≈ 0.0706 µM)
- MIC ([4]; Prevotella amnii, isolate 601368 24): 0.03 µg/mL (≈ 0.0706 µM)
- MIC ([4]; Prevotella amnii, isolate 601369 13): 0.03 µg/mL (≈ 0.0706 µM)
- MIC ([4]; Prevotella amnii, isolate 601375 L): 0.03 µg/mL (≈ 0.0706 µM)
- MIC ([4]; Prevotella amnii, isolate 601377 9): 0.03 µg/mL (≈ 0.0706 µM)
- MIC ([4]; Prevotella amnii, isolate 601379 24): 0.03 µg/mL (≈ 0.0706 µM)
- MIC ([4]; Prevotella amnii, isolate 601388 G): 0.03 µg/mL (≈ 0.0706 µM)
- MIC ([4]; Prevotella amnii, isolate 601399 10): 0.03 µg/mL (≈ 0.0706 µM)
- MIC ([4]; Prevotella amnii, isolate 601405 A): 0.03 µg/mL (≈ 0.0706 µM)
- MIC ([4]; Prevotella amnii, isolate 601411 L): 0.03 µg/mL (≈ 0.0706 µM)
- MIC ([4]; Prevotella amnii, isolate 601413 10): 0.03 µg/mL (≈ 0.0706 µM)
- MIC ([4]; Prevotella amnii, isolate 601418 27): 0.03 µg/mL (≈ 0.0706 µM)
- MIC ([4]; Prevotella amnii, isolate 601426 A): 0.03 µg/mL (≈ 0.0706 µM)
- MIC ([4]; Prevotella amnii, isolate 601430 14): 0.03 µg/mL (≈ 0.0706 µM)
- MIC ([4]; Prevotella amnii, isolate 601434 13): 0.03 µg/mL (≈ 0.0706 µM)
- MIC ([4]; Prevotella amnii, isolate 601458 13): 0.03 µg/mL (≈ 0.0706 µM)
- MIC50 ([4]; Prevotella amnii, # tested 33): 0.03 µg/mL (≈ 0.0706 µM)
- MIC90 ([4]; Prevotella amnii, # tested 33): 0.03 µg/mL (≈ 0.0706 µM)
- Susceptible ([4]; number (%) of isolates, # tested 33): 32 (97) μg/ml
- Resistant ([4]; number (%) of isolates, # tested 33, resistance: rifaximin >32, metronidazole >32, clindamycin >8 μg/ml): 1 (3) μg/ml
- MIC ([5]; Finegoldia magna, isolate 301303V D): 8 µg/mL (≈ 18.8 µM)
- MIC ([5]; Finegoldia magna, isolate 601205V 39): 8 µg/mL (≈ 18.8 µM)
- MIC ([5]; Finegoldia magna, isolate 601275V c): 128 µg/mL (≈ 301 µM)
- MIC ([5]; Finegoldia magna, isolate 601276V 23): 0.5 µg/mL (≈ 1.18 µM)
- MIC ([5]; Finegoldia magna, isolate 601283V 14): 4 µg/mL (≈ 9.41 µM)
- MIC ([5]; Finegoldia magna, isolate 601295V 25): 0.25 µg/mL (≈ 0.588 µM)
- MIC ([5]; Finegoldia magna, isolate 601298V 30): 128 µg/mL (≈ 301 µM)
- MIC ([5]; Finegoldia magna, isolate 601308V 24): 0.25 µg/mL (≈ 0.588 µM)
- MIC ([5]; Finegoldia magna, isolate 601315V 17): 4 µg/mL (≈ 9.41 µM)
- MIC ([5]; Finegoldia magna, isolate 601315V 17A): 4 µg/mL (≈ 9.41 µM)
- MIC ([5]; Finegoldia magna, isolate 601320V 24): 0.5 µg/mL (≈ 1.18 µM)
- MIC ([5]; Finegoldia magna, isolate 601323V K): 0.25 µg/mL (≈ 0.588 µM)
- MIC ([5]; Finegoldia magna, isolate 601330V c): 0.25 µg/mL (≈ 0.588 µM)
- MIC ([5]; Finegoldia magna, isolate 601335V c1): 0.5 µg/mL (≈ 1.18 µM)
- MIC ([5]; Finegoldia magna, isolate 601340V 27): 0.25 µg/mL (≈ 0.588 µM)
- MIC ([5]; Finegoldia magna, isolate 601359V c): 0.25 µg/mL (≈ 0.588 µM)
- MIC ([5]; Finegoldia magna, isolate 601363V 6): 0.03 µg/mL (≈ 0.0706 µM)
- MIC ([5]; Finegoldia magna, isolate 601367V c): 0.5 µg/mL (≈ 1.18 µM)
- MIC ([5]; Finegoldia magna): > 128 µg/mL
- MIC50 ([5]; Finegoldia magna, # tested 20): 0.5 µg/mL (≈ 1.18 µM)
- MIC90 ([5]; Finegoldia magna, # tested 20): 128 µg/mL (≈ 301 µM)
- Number of strains with indicated MIC ([5]; MIC 0.03 μg/ml): 1
- Number of strains with indicated MIC ([5]; MIC 8 μg/ml): 2
- Number of strains with indicated MIC ([5]; MIC >[…]): 2
- Minimal Inhibitory Concentration (MIC) ([5]; isolate 601214V F): >128 µg/mL
- Number of strains with indicated MIC ([6]; MIC >[…], 23 samples): 2
- MIC ([6]; Peptoniphilus harei, isolate 601098V Q, read-out: Minimal Inhibitory Concentration (MIC)): 1 µg/mL (≈ 2.35 µM)
